The source of these data is patent US9340590B2 (priority 2011, dated 2016).

Positions of bridges follow the written chain, without caps; N, C: chain ends. Non-standard residues stand in square brackets, D forms with d. Residues, ends and D or L forms follow the SMILES beside them. Groups on a side chain read outwards from the residue. Arg(Me2s) = CN=C(NC)NCCC[C@H](N)C(=O)O; Arg(Me) = CNC(=N)NCCC[C@H](N)C(=O)O; Orn = NCCC[C@H](N)C(=O)O; Pra = C#CC[C@H](N)C(=O)O

In test [1] the target is hNav1.5 (Homo sapiens, UniProt Q14524). As to the kind of experiment: cell-based.
Chain of hNav1.5 (Q14524 whole entry, looked up): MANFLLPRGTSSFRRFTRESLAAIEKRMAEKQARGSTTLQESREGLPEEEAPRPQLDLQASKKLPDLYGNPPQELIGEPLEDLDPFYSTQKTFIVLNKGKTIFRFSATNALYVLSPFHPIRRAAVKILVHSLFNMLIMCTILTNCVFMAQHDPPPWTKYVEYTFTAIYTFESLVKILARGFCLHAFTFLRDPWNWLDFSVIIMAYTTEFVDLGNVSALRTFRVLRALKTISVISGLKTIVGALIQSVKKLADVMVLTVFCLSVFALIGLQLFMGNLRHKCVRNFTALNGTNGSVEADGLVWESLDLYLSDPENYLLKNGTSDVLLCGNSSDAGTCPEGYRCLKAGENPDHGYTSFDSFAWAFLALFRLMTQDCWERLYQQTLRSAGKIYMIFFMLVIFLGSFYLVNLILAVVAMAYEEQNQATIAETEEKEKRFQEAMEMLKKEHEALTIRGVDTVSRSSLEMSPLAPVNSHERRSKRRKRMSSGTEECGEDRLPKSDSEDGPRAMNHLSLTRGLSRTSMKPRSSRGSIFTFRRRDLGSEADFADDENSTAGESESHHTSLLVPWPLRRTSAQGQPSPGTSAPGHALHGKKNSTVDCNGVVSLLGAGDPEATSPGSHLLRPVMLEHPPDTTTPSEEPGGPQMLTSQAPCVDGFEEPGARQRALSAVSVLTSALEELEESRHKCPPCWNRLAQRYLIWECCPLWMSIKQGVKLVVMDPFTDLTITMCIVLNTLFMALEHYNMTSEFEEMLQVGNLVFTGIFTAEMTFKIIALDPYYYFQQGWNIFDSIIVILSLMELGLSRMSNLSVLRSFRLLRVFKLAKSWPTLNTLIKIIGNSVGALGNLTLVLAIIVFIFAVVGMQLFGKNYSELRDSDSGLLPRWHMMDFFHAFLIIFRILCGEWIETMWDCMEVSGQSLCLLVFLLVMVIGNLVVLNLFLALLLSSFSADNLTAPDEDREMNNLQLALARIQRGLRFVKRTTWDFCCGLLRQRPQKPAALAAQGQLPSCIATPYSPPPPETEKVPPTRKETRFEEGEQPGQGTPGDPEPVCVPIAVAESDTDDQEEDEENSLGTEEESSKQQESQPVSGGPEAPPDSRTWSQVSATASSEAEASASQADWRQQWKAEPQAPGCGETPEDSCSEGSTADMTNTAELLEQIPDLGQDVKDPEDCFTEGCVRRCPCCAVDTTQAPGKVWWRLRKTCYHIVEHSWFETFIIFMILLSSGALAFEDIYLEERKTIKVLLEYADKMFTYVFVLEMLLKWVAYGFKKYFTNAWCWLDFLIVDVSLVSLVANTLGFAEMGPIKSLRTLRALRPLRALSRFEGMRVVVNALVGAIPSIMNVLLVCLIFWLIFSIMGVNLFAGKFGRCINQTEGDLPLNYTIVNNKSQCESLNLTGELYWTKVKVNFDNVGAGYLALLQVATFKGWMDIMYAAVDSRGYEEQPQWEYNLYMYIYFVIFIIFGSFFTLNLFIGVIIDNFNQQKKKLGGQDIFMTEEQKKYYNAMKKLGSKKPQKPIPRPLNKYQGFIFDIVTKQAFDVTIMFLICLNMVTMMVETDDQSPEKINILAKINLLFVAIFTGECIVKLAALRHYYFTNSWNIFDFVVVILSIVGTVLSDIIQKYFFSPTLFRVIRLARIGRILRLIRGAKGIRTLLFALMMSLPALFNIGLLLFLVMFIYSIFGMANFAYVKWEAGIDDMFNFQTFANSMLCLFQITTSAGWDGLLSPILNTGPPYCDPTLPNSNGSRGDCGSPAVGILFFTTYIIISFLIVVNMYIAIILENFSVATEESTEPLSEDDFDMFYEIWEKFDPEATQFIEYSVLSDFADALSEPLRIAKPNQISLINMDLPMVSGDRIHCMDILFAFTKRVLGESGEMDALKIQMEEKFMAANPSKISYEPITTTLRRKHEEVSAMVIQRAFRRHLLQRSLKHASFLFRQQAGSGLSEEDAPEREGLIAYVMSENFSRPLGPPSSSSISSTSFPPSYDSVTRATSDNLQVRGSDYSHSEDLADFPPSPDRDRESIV
Test [2] has as its target hNav1.7 (Homo sapiens, UniProt Q15858). The test can be described thus: cell-based. Conditions: Nav1.7 Use IC50.

Chain of hNav1.7 (Q15858 whole entry, looked up): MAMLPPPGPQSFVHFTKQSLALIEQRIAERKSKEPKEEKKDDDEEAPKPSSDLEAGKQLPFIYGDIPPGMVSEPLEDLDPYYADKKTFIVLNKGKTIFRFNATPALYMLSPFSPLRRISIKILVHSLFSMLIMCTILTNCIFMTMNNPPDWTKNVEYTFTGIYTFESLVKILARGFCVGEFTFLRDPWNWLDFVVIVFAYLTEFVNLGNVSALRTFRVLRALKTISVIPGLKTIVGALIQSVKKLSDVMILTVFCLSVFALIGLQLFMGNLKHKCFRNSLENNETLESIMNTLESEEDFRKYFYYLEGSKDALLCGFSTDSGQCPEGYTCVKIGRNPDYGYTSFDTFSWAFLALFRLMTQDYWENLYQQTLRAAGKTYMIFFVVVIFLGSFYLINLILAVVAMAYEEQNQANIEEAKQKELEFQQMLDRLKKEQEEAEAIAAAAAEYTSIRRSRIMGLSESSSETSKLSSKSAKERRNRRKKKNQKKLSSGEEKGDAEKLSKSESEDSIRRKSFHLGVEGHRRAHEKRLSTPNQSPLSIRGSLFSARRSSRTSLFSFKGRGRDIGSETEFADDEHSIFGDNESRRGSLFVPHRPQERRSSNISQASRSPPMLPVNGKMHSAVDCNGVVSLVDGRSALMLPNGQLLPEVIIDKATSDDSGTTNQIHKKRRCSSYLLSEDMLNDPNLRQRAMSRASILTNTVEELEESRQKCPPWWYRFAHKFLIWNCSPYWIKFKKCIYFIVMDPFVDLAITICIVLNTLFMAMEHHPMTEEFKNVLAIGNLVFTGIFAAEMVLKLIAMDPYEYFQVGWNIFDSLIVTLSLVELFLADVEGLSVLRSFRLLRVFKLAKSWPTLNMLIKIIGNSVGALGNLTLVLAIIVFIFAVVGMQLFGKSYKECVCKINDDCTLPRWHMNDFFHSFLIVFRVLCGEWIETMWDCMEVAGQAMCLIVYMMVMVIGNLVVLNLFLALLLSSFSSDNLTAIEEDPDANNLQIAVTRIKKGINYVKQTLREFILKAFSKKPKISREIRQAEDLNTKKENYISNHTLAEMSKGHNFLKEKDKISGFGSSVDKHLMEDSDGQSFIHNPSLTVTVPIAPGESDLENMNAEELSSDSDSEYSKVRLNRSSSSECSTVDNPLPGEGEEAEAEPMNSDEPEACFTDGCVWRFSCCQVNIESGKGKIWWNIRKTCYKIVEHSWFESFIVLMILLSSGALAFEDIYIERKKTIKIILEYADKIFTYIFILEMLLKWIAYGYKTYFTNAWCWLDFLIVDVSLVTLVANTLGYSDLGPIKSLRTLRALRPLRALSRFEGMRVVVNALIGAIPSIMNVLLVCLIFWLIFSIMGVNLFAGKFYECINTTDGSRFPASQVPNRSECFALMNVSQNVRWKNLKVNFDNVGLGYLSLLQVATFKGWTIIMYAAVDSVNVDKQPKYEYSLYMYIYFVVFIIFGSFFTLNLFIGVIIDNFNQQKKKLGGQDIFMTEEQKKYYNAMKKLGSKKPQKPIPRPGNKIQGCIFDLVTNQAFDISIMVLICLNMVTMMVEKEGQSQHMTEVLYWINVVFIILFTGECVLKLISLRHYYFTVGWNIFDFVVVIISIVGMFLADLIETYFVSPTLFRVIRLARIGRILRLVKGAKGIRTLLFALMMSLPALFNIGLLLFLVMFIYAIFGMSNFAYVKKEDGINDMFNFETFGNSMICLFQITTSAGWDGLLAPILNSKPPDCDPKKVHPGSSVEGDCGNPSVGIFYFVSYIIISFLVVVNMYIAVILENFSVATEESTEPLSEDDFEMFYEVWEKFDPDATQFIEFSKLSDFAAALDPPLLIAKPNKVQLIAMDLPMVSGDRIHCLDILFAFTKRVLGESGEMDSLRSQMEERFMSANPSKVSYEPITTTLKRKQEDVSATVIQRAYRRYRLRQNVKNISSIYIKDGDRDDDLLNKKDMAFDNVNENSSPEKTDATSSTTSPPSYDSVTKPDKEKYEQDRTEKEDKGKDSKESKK

On to `CC[C@H](C)[C@@H]1NC(=O)[C@@H]2CSSC[C@@H]3NC(=O)[C@H](C(C)C)NC(=O)[C@H](CC(C)C)NC(=O)[C@H](CC(N)=O)NC(=O)[C@@H]4CCCN4C(=O)[C@H](CCCNC(=N)N)NC(=O)[C@H](CSSC[C@H](NC(=O)[C@@H](N)CC(=O)O)C(=O)N[C@@H](CC(C)C)C(=O)NCC(=O)N[C@@H](C)C(=O)N[C@@H](CCSC)C(=O)N[C@@H](CCCNC(=N)N)C(=O)N[C@@H](CCCCN)C(=O)N2)NC(=O)[C@H](CSSC[C@@H](C(=O)N[C@@H](CCCCN)C(=O)N[C@@H](Cc2ccc(O)cc2)C(=O)N[C@H](C(=O)N[C@@H](Cc2ccccc2)C(N)=O)C(C)C)NC(=O)[C@H](Cc2c[nH]c4ccccc24)NC(=O)[C@H](CCCN)NC(=O)[C@H](Cc2c[nH]cn2)NC(=O)[C@H]([C@@H](C)O)NC(=O)[C@H](CCCNC(=N)N)NC(=O)[C@H](CO)NC3=O)NC(=O)[C@H](CCCCN)NC(=O)[C@H](CC(=O)O)NC(=O)[C@H](CC(N)=O)NC(=O)[C@H](CC(=O)O)NC(=O)[C@@H]2CCCN2C1=O` [[Ala5;Orn28]GpTx-1(1-34)] (H-DCLGAMRKCIPDNDKCCRPNLVCSRTH[Orn]WCKYVF-NH2; disulfide 2-17, 9-23, 16-30), for which the IC50 in test [1] was above 10000 nM; in test [2], 59 nM.

In the case of `CC(C)C[C@@H]1NC(=O)[C@@H](NC(=O)[C@@H](N)CC(=O)O)CSSC[C@@H]2NC(=O)[C@@H]3CSSC[C@@H](C(=O)N[C@@H](CCCCN)C(=O)N[C@@H](Cc4ccc(O)cc4)C(=O)N[C@H](C(=O)N[C@@H](Cc4ccccc4)C(N)=O)C(C)C)NC(=O)[C@H](Cc4c[nH]c5ccccc45)NC(=O)[C@H](CCCCN)NC(=O)[C@H](Cc4c[nH]cn4)NC(=O)[C@H]([C@@H](C)O)NC(=O)[C@H](CCCNC(=N)N)NC(=O)[C@H](CO)NC(=O)[C@H](CSSC[C@H](NC(=O)[C@H](CCCCN)NC(=O)[C@H](CCCNC(=N)N)NC(=O)[C@H](Cc4ccccc4)NC(=O)[C@H](C)NC(=O)CNC1=O)C(=O)N[C@@H](CC(=O)O)C(=O)N1CCC[C@H]1C(=O)N[C@@H](CC(=O)O)C(=O)N[C@@H](CC(N)=O)C(=O)N[C@@H](CC(=O)O)C(=O)N[C@@H](CCCCN)C(=O)N3)NC(=O)[C@H](C(C)C)NC(=O)[C@H](CC(C)C)NC(=O)[C@H](CC(N)=O)NC(=O)[C@@H]1CCCN1C(=O)[C@H](CCCNC(=N)N)NC2=O` [[Ala5;Phe6;Asp10]GpTx-1(1-34)] (H-DCLGAFRKCDPDNDKCCRPNLVCSRTHKWCKYVF-NH2; disulfide 2-17, 9-23, 16-30), the IC50 in test [1] was above 10000 nM; in test [2] it was 40 nM.

For `CC(C)C[C@@H]1NC(=O)[C@@H](NC(=O)[C@@H](N)CC(=O)O)CSSC[C@@H]2NC(=O)[C@@H]3CSSC[C@@H](C(=O)N[C@@H](CCCCN)C(=O)N[C@@H](Cc4ccc(O)cc4)C(=O)N[C@H](C(=O)N[C@@H](Cc4ccccc4)C(N)=O)C(C)C)NC(=O)[C@H](Cc4c[nH]c5ccccc45)NC(=O)[C@H](CCCCN)NC(=O)[C@H](Cc4c[nH]cn4)NC(=O)[C@H]([C@@H](C)O)NC(=O)[C@H](CCCNC(=N)N)NC(=O)[C@H](CO)NC(=O)[C@H](CSSC[C@H](NC(=O)[C@H](CCCCN)NC(=O)[C@H](CCCNC(=N)N)NC(=O)[C@H](Cc4ccccc4)NC(=O)[C@H](C)NC(=O)CNC1=O)C(=O)N[C@@H](CCC(=O)O)C(=O)N1CCC[C@H]1C(=O)N[C@@H](CC(=O)O)C(=O)N[C@@H](CC(N)=O)C(=O)N[C@@H](CC(=O)O)C(=O)N[C@@H](CCCCN)C(=O)N3)NC(=O)[C@H](C(C)C)NC(=O)[C@H](CC(C)C)NC(=O)[C@H](CC(N)=O)NC(=O)[C@@H]1CCCN1C(=O)[C@H](CCCNC(=N)N)NC2=O` [[Ala5;Phe6;Glu10]GpTx-1(1-34)] (H-DCLGAFRKCEPDNDKCCRPNLVCSRTHKWCKYVF-NH2; disulfide 2-17, 9-23, 16-30), the IC50 in test [1] is above 10000 nM; in test [2], 79 nM.

As for `CC[C@H](C)[C@@H]1NC(=O)[C@@H]2CSSC[C@@H]3NC(=O)[C@H](C(C)C)NC(=O)[C@H](CC(C)C)NC(=O)[C@H](CC(N)=O)NC(=O)[C@@H]4CCCN4C(=O)[C@H](CCCNC(=N)N)NC(=O)[C@H](CSSC[C@H](NC(=O)[C@@H](N)CC(=O)O)C(=O)N[C@@H](CC(C)C)C(=O)NCC(=O)N[C@@H](C)C(=O)N[C@@H](Cc4ccccc4)C(=O)N[C@@H](CCCNC(=N)N)C(=O)N[C@@H](CCCCN)C(=O)N2)NC(=O)[C@H](CSSC[C@@H](C(=O)N[C@@H](CCCCN)C(=O)N[C@@H](Cc2ccc(O)cc2)C(=O)N[C@H](C(=O)N[C@@H](Cc2ccccc2)C(N)=O)C(C)C)NC(=O)[C@H](Cc2c[nH]c4ccccc24)NC(=O)[C@H](CCCCN)NC(=O)[C@H](Cc2c[nH]cn2)NC(=O)[C@H]([C@@H](C)O)NC(=O)[C@H](CCCNC(=N)N)NC(=O)[C@H](CO)NC3=O)NC(=O)[C@H](CCCCN)NC(=O)[C@H](CC(=O)O)NC(=O)[C@H](CC(N)=O)NC(=O)[C@H](CCC(=O)O)NC(=O)[C@@H]2CCCN2C1=O` [[Ala5;Phe6;Glu12]GpTx-1(1-34)] (H-DCLGAFRKCIPENDKCCRPNLVCSRTHKWCKYVF-NH2; disulfide 2-17, 9-23, 16-30), the IC50 in test [1] was above 10000 nM; in test [2], 28 nM.

Consider `C#CC[C@H](NC(C)=O)C(=O)NCCCC[C@@H]1NC(=O)[C@H](CC(=O)O)NC(=O)[C@@H]2CCCN2C(=O)[C@H]([C@@H](C)CC)NC(=O)[C@@H]2CSSC[C@@H]3NC(=O)[C@H](C(C)C)NC(=O)[C@H](CC(C)C)NC(=O)[C@H](CC(N)=O)NC(=O)[C@@H]4CCCN4C(=O)[C@H](CCCNC(=N)N)NC(=O)[C@H](CSSC[C@H](NC(=O)[C@@H](N)CC(=O)O)C(=O)N[C@@H](CC(C)C)C(=O)NCC(=O)N[C@@H](C)C(=O)N[C@@H](Cc4ccccc4)C(=O)N[C@@H](CCCNC(=N)N)C(=O)N[C@@H](CCCCN)C(=O)N2)NC(=O)[C@H](CSSC[C@@H](C(=O)N[C@@H](CCCCN)C(=O)N[C@@H](Cc2ccc(O)cc2)C(=O)N[C@H](C(=O)N[C@@H](Cc2ccccc2)C(N)=O)C(C)C)NC(=O)[C@H](Cc2c[nH]c4ccccc24)NC(=O)[C@H](CCCCN)NC(=O)[C@H](Cc2c[nH]cn2)NC(=O)[C@H]([C@@H](C)O)NC(=O)[C@H](CCCNC(=N)N)NC(=O)[C@H](CO)NC3=O)NC(=O)[C@H](CCCCN)NC(=O)[C@H](CC(=O)O)NC1=O` [[Ala5;Phe6;K(Ac-Pra)13]GpTx-1(1-34)] (H-DCLGAFRKCIPDK([Pra-Ac])DKCCRPNLVCSRTHKWCKYVF-NH2; disulfide 2-17, 9-23, 16-30), for which the values for the IC50 in test [1] and in test [2] were above 10000 nM and 11 nM, respectively.

For the molecule `CC[C@H](C)[C@@H]1NC(=O)[C@@H]2CSSC[C@@H]3NC(=O)[C@H](C(C)C)NC(=O)[C@H](CC(C)C)NC(=O)[C@H](CC(N)=O)NC(=O)[C@@H]4CCCN4C(=O)[C@H](CCCNC(=N)N)NC(=O)[C@H](CSSC[C@H](NC(=O)[C@@H](N)CC(=O)O)C(=O)N[C@@H](CC(C)C)C(=O)NCC(=O)N[C@@H](C)C(=O)N[C@@H](CCSC)C(=O)N[C@@H](CCCNC(=N)N)C(=O)N[C@@H](CCCCN)C(=O)N2)NC(=O)[C@H](CSSC[C@@H](C(=O)N[C@@H](CCCCN)C(=O)N[C@@H](Cc2ccc(O)cc2)C(=O)N[C@H](C(=O)N[C@@H](Cc2ccccc2)C(N)=O)C(C)C)NC(=O)[C@H](Cc2c[nH]c4ccccc24)NC(=O)[C@H](CCCNC(=N)NC)NC(=O)[C@H](Cc2c[nH]cn2)NC(=O)[C@H]([C@@H](C)O)NC(=O)[C@H](CCCNC(=N)N)NC(=O)[C@H](CO)NC3=O)NC(=O)[C@H](CCCCN)NC(=O)[C@H](CC(=O)O)NC(=O)[C@H](CC(N)=O)NC(=O)[C@H](CC(=O)O)NC(=O)[C@@H]2CCCN2C1=O` [[Ala5;R(Me)28]GpTx-1(1-34)] (H-DCLGAMRKCIPDNDKCCRPNLVCSRTH[Arg(Me)]WCKYVF-NH2; disulfide 2-17, 9-23, 16-30), the values for the IC50 in test [1] and in test [2] were above 10000 nM and 51 nM, respectively.

Regarding `CC[C@H](C)[C@@H]1NC(=O)[C@@H]2CSSC[C@@H]3NC(=O)[C@H](C(C)C)NC(=O)[C@H](CC(C)C)NC(=O)[C@H](CC(N)=O)NC(=O)[C@@H]4CCCN4C(=O)[C@H](CCCNC(=N)N)NC(=O)[C@H](CSSC[C@H](NC(=O)[C@@H](N)CC(=O)O)C(=O)N[C@@H](CC(C)C)C(=O)NCC(=O)N[C@@H](C)C(=O)N[C@@H](CCSC)C(=O)N[C@@H](CCCNC(=N)N)C(=O)N[C@@H](CCCCN)C(=O)N2)NC(=O)[C@H](CSSC[C@@H](C(=O)N[C@@H](CCCCN)C(=O)N[C@@H](Cc2ccc(O)cc2)C(=O)N[C@H](C(=O)N[C@@H](Cc2ccccc2)C(N)=O)C(C)C)NC(=O)[C@H](Cc2c[nH]c4ccccc24)NC(=O)[C@H](CCCNC(=NC)NC)NC(=O)[C@H](Cc2c[nH]cn2)NC(=O)[C@H]([C@@H](C)O)NC(=O)[C@H](CCCNC(=N)N)NC(=O)[C@H](CO)NC3=O)NC(=O)[C@H](CCCCN)NC(=O)[C@H](CC(=O)O)NC(=O)[C@H](CC(N)=O)NC(=O)[C@H](CC(=O)O)NC(=O)[C@@H]2CCCN2C1=O` [[Ala5;SDMA28]GpTx-1(1-34)] (H-DCLGAMRKCIPDNDKCCRPNLVCSRTH[Arg(Me2s)]WCKYVF-NH2; disulfide 2-17, 9-23, 16-30), the figures for the IC50 in test [1] and in test [2] were above 10000 nM and 41 nM, respectively.

As for `CC[C@H](C)[C@@H]1NC(=O)[C@@H]2CSSC[C@@H]3NC(=O)[C@H](C(C)C)NC(=O)[C@H](CC(C)C)NC(=O)[C@H](CC(N)=O)NC(=O)[C@@H]4CCCN4C(=O)[C@H](CCCNC(=N)N)NC(=O)[C@H](CSSC[C@H](NC(=O)[C@@H](N)CC(=O)O)C(=O)N[C@@H](CC(C)C)C(=O)NCC(=O)N[C@@H](C)C(=O)N[C@@H](CCSC)C(=O)N[C@@H](CCCNC(=N)N)C(=O)N[C@@H](CCCCN)C(=O)N2)NC(=O)[C@H](CSSC[C@@H](C(=O)N[C@@H](CCCCN)C(=O)N[C@@H](Cc2ccc(O)cc2)C(=O)N[C@H](C(=O)N[C@@H](Cc2ccccc2)C(N)=O)C(C)C)NC(=O)[C@H](Cc2c[nH]c4ccccc24)NC(=O)[C@H](CO)NC(=O)[C@H](Cc2c[nH]cn2)NC(=O)[C@H]([C@@H](C)O)NC(=O)[C@H](CCCNC(=N)N)NC(=O)[C@H](CO)NC3=O)NC(=O)[C@H](CCCCN)NC(=O)[C@H](CC(=O)O)NC(=O)[C@H](CC(N)=O)NC(=O)[C@H](CC(=O)O)NC(=O)[C@@H]2CCCN2C1=O` [[Ala5;Ser28]GpTx-1(1-34)] (H-DCLGAMRKCIPDNDKCCRPNLVCSRTHSWCKYVF-NH2; disulfide 2-17, 9-23, 16-30), the IC50 in test [1] is above 10000 nM; in test [2], 45 nM.

By IC50 is commonly meant the concentration that gives 50% inhibition. High values mean a need for much substance, low ones inhibition by little substance.
